Here are results for 11 molecules from PMC9151520 (Archives of Toxicology, 2022).

Several values for one entry are separate records, joined by “and”; a condition that tells them apart may be missing. Equal values may be shown once. Read-outs that look alike come from different tables or passages of the source.

In assay [1] the test system is p53 signaling (p53RE-bla HCT-116 cells).
Assay [2] has the same test system. This is another data set of the same source.
Assay [3] concerns p53RE-bla HCT-116 cells.
Assay [4] has as its system p53 signaling (p53RE-bla HCT-116 cells). The assay is described as follows: cells. Type of assay: cell-based.
Setting [5] is: Homo sapiens, HCT-116, read-out: EC50, p53 activation, primary screening.
Setting [6] is: Homo sapiens, HCT-116, read-out: Efficacy, p53 activation, primary screening.
Setting [7] is: Homo sapiens, HCT-116, read-out: p53 activation EC50, cherry pick confirmation.
The mark [8] stands for this setting: Homo sapiens, HCT-116, read-out: p53 activation EC50, primary screening.
[9] abbreviates: Homo sapiens, HCT-116, read-out: p53 activation efficacy, cherry pick confirmation.
The mark [10] stands for this setting: Homo sapiens, HCT-116, read-out: p53 activation efficacy, primary screening.

Usually EC50 stands for the concentration needed to bring the measured effect to its halfway point.

Consider `COC1=CC(=O)C[C@@H](C)[C@]12Oc1c(Cl)c(OC)cc(OC)c1C2=O` [Griseofulvin], for which, in assay [1], the “EC50, p53 activation, cherry pick confirmation” value was “inactive”; the “EC50, p53 activation, primary screening” value was “inactive”; the “Efficacy, p53 activation, cherry pick confirmation” value is “inactive”; the “Efficacy, p53 activation, primary screening” value is “inactive”. For the same molecule, in assay [2], the “EC50, p53 activation, cherry pick confirmation” value is “inactive”; the “EC50, p53 activation, primary screening” value was “inactive”; the “Efficacy, p53 activation, cherry pick confirmation” value is “inactive”; the “Efficacy, p53 activation, primary screening” value was “inactive”. Moreover, in assay [3], the “EC50, viability, cherry pick confirmation” value is “inactive”; the “EC50, viability, primary screening” value is “inactive”; the “Efficacy, viability, cherry pick confirmation” value is “inactive”; the “Efficacy, viability, primary screening” value is “inactive”. In assay [4], the “EC50, p53 activation, cherry pick confirmation” value is “inactive” and the “Efficacy, p53 activation, cherry pick confirmation” value was “inactive”. In addition, in assay [4] (setting [5]), the EC50 is 36.3 µM. Besides, in assay [4] (setting [6]), the Emax turned out to be 41.2%.

For `CCN(CC)CCNc1ccc(CO)c2sc3ccccc3c(=O)c12` [Hycanthone], in assay [1], the “EC50, p53 activation, cherry pick confirmation” value was “inactive” and the “Efficacy, p53 activation, cherry pick confirmation” value is “inactive”. Also, in assay [2], the “EC50, p53 activation, cherry pick confirmation” value is “inactive” and the “Efficacy, p53 activation, cherry pick confirmation” value was “inactive”. In assay [3], the “EC50, viability, cherry pick confirmation” value was “inactive”; the “EC50, viability, primary screening” value is “inactive”; the “Efficacy, viability, cherry pick confirmation” value is “inactive”; the “Efficacy, viability, primary screening” value was “inactive”. The EC50 in assay [4] (Homo sapiens, HCT-116, read-out: EC50, p53 activation, cherry pick confirmation) stood at 18.4 µM. Also, in assay [4] (Homo sapiens, HCT-116, read-out: Efficacy, p53 activation, cherry pick confirmation), the Emax worked out at 500%.

`C=CCOC(Cn1ccnc1)c1ccc(Cl)cc1Cl` (centres unmarked) [Imazalil]: in assay [1], the “EC50, p53 activation, cherry pick confirmation” value is “inactive”; the “EC50, p53 activation, primary screening” value is “inactive”; the “Efficacy, p53 activation, cherry pick confirmation” value was “inactive”; the “Efficacy, p53 activation, primary screening” value was “inactive”. For the same molecule, in assay [2], the “EC50, p53 activation, cherry pick confirmation” value was “inactive”; the “EC50, p53 activation, primary screening” value was “inactive”; the “Efficacy, p53 activation, cherry pick confirmation” value is “inactive”; the “Efficacy, p53 activation, primary screening” value was “inactive”. In assay [3], the “EC50, viability, cherry pick confirmation” value was “inactive”; the “EC50, viability, primary screening” value was “inactive”; the “Efficacy, viability, cherry pick confirmation” value is “inactive”; the “Efficacy, viability, primary screening” value was “inactive”. For the same molecule, in assay [4], the “EC50, p53 activation, cherry pick confirmation” value was “inactive” and the “Efficacy, p53 activation, cherry pick confirmation” value was “inactive”. The EC50 in assay [4] (setting [5]) worked out at 49.6 µM. Further, the Emax in assay [4] (setting [6]) worked out at 41.7%.

As for `N[C@@H](Cc1ccc(N(CCCl)CCCl)cc1)C(=O)O` [Melphalan], in assay [1], the “p53 activation EC50, cherry pick confirmation” value is “inactive”; the “p53 activation EC50, primary screening” value was “inactive”; the “p53 activation efficacy, cherry pick confirmation” value was “inactive”; the “p53 activation efficacy, primary screening” value is “inactive”. Besides, in assay [2], the “p53 activation EC50, cherry pick confirmation” value is “inactive”; the “p53 activation EC50, primary screening” value is “inactive”; the “p53 activation efficacy, cherry pick confirmation” value was “inactive”; the “p53 activation efficacy, primary screening” value was “inactive”. In assay [3], the “Viability EC50, cherry pick confirmation” value is “inactive”; the “Viability EC50, primary screening” value was “inactive”; the “Viability efficacy, cherry pick confirmation” value is “inactive”; the “Viability efficacy, primary screening” value was “inactive”. Also, in assay [4] (setting [7]), the EC50 worked out at 15.6 µM. The EC50 in assay [4] (setting [8]) turned out to be 17.8 µM. Also, in assay [4] (setting [9]), the Emax was found to be 43.3%. Moreover, in assay [4] (setting [10]), the Emax came out at 46.7%.

With `COP(=S)(OC)Oc1ccc([N+](=O)[O-])cc1` [Methyl parathion], the EC50 was 9.83 µM in assay [1] and 7.98 µM in assay [2] (read-out: p53 activation EC50). The p53 activation efficacy was 52.7126 and 58.5263 in assay [1]; “inactive” in assay [4]. In addition, the “p53 activation EC50” value in assay [2] and in assay [4] was “inactive” throughout. In addition, the “Viability EC50” value in assay [3] was “inactive”. Also, the Viability efficacy entry in assay [3] is “inactive”.

Take `N#CSCSC#N` [Methylene bis(thiocyanate)]: the “p53 activation EC50, cherry pick confirmation” value in assay [1] and in assay [2] was “inactive” in each case. Besides, the “p53 activation EC50, primary screening” value in assay [1] and in assay [2] was “inactive” each time. The figures for the “p53 activation efficacy, cherry pick confirmation” value in assay [1], in assay [2] and in assay [4] were “inactive”, “inactive” and 39.736, respectively. Moreover, the “p53 activation efficacy, primary screening” value in assay [1] was “inactive”; in assay [2], “inactive”; in assay [4] it was 49.8917. The EC50 was 38.1 µM and 36 µM and 40.4 µM in assay [3] (read-out: Viability EC50, cherry pick confirmation); 39.6 µM and 47 µM and 35.4 µM in assay [3] (read-out: Viability EC50, primary screening); 10.1 µM in assay [4] (read-out: p53 activation EC50, cherry pick confirmation); 11.8 µM in assay [4] (read-out: p53 activation EC50, primary screening).

In turn, `COP(=O)(OC)Oc1ccc([N+](=O)[O-])cc1` [Methylparaoxon] came in with an EC50 in assay [1] of 20.1 µM. For the same molecule, in assay [1] (read-out: EC50, p53 activation, cherry pick confirmation), the EC50 was 20 µM. Further, the “EC50, p53 activation, cherry pick confirmation” value in assay [2] is “inactive”. In assay [3], the “EC50, viability, cherry pick confirmation” value is “inactive”; the “EC50, viability, primary screening” value was “inactive”; the “Efficacy, viability, cherry pick confirmation” value was “inactive”; the “Efficacy, viability, primary screening” value was “inactive”. In addition, in assay [4], the “EC50, p53 activation, cherry pick confirmation” value is “inactive”; the “EC50, p53 activation, primary screening” value is “inactive”; the “Efficacy, p53 activation, cherry pick confirmation” value is “inactive”; the “Efficacy, p53 activation, primary screening” value was “inactive”.

With `COC(=O)/C=C(\C)OP(=O)(OC)OC` [Mevinphos], in assay [1], the midpoint of the response, the EC50, lay at 7.96 µM; the p53 activation efficacy was 77.3871 and 64.7167. Besides, in assay [2], the “p53 activation EC50” value was “inactive”. Further, in assay [3], the “Viability EC50” value was “inactive” and the Viability efficacy result was “inactive”. Further, in assay [4], the “p53 activation EC50” value was “inactive” and the p53 activation efficacy result is “inactive”.

On to `CN(C)c1ccc(C(=O)c2ccc(N(C)C)cc2)cc1` [Michler's ketone], for which, in assay [1], the “p53 activation EC50, cherry pick confirmation” value is “inactive”; the “p53 activation EC50, primary screening” value is “inactive”; the “p53 activation efficacy, cherry pick confirmation” value is “inactive”; the “p53 activation efficacy, primary screening” value is “inactive”. Moreover, in assay [2], the “p53 activation EC50, cherry pick confirmation” value is “inactive”; the “p53 activation EC50, primary screening” value is “inactive”; the “p53 activation efficacy, cherry pick confirmation” value was “inactive”; the “p53 activation efficacy, primary screening” value is “inactive”. Further, in assay [3], the “Viability EC50, cherry pick confirmation” value is “inactive”; the “Viability EC50, primary screening” value is “inactive”; the “Viability efficacy, cherry pick confirmation” value was “inactive”; the “Viability efficacy, primary screening” value was “inactive”. In assay [4], the “p53 activation EC50, cherry pick confirmation” value was “inactive” and the “p53 activation efficacy, cherry pick confirmation” value was “inactive”. Besides, the EC50 in assay [4] (setting [8]) was 2.8 µM. For the same molecule, in assay [4] (setting [10]), the Emax amounted to 37.9%.

On to `Cc1ccccc1C(=O)Nc1ccc(C(=O)N2CCCC(N(C)C)c3ccccc32)cc1` (centres unmarked) [Mozavaptan], for which, in assay [1], the “p53 activation EC50, cherry pick confirmation” value was “inactive”; the “p53 activation EC50, primary screening” value was “inactive”; the “p53 activation efficacy, cherry pick confirmation” value is “inactive”; the “p53 activation efficacy, primary screening” value is “inactive”. In addition, in assay [2], the “p53 activation EC50, cherry pick confirmation” value was “inactive”; the “p53 activation EC50, primary screening” value is “inactive”; the “p53 activation efficacy, cherry pick confirmation” value is “inactive”; the “p53 activation efficacy, primary screening” value is “inactive”. Moreover, in assay [3], the “Viability EC50, cherry pick confirmation” value is “inactive”; the “Viability EC50, primary screening” value was “inactive”; the “Viability efficacy, cherry pick confirmation” value is “inactive”; the “Viability efficacy, primary screening” value was “inactive”. For the same molecule, the concentration giving a half-maximal response (EC50) in assay [4] (setting [7]) stood at 1.36 µM. Also, the EC50 in assay [4] (setting [8]) was 7.97 µM. The Emax in assay [4] (setting [9]) was 38.6%. Moreover, the Emax in assay [4] (setting [10]) is 66.2%.

For the molecule `COc1c(C)c2c(c(O)c1C/C=C(\C)CCC(=O)OCCN1CCOCC1)C(=O)OC2` [Mycophenolate mofetil], in assay [1], the “p53 activation EC50, cherry pick confirmation” value is “inactive”; the “p53 activation EC50, primary screening” value is “inactive”; the “p53 activation efficacy, cherry pick confirmation” value is “inactive”; the “p53 activation efficacy, primary screening” value was “inactive”. For the same molecule, in assay [2], the “p53 activation EC50, cherry pick confirmation” value is “inactive”; the “p53 activation EC50, primary screening” value was “inactive”; the “p53 activation efficacy, cherry pick confirmation” value is “inactive”; the “p53 activation efficacy, primary screening” value was “inactive”. In assay [3], the “Viability EC50, cherry pick confirmation” value is “inactive”; the “Viability EC50, primary screening” value was “inactive”; the “Viability efficacy, cherry pick confirmation” value is “inactive”; the “Viability efficacy, primary screening” value was “inactive”. Besides, the concentration for a half-maximal effect (EC50) in assay [4] (setting [7]) was found to be 0.209 µM. For the same molecule, the EC50 in assay [4] (setting [8]) worked out at 0.163 µM. Moreover, in assay [4] (setting [9]), the Emax was determined as 56.2%. Besides, the Emax in assay [4] (setting [10]) worked out at 36.3%.
